Results reported in patent publication US8920775B2, “Loading technique for preparing radionuclide containing nanoparticles” (Technical University of Denmark, priority 2009, dated 2014).

Tests used:
[1] = ITC: ligand exchange of Cu(II) between 2HQ and chelates (Examples III, Table 2)
Experimental: Isothermal titration calorimetry (ITC) measurements were used to obtain the equilibrium constant (K, also referred to as the exchange constant) of the ligand exchange between the ionophore and the agent-entrapping compound, here a chelator. […] The ligand exchange was monitored by the heat of reaction from each injection in the ITC experiment as determined by peak integration. The ligand exchange constant (K) was determined by fitting the heat of reaction. The binding isotherm is defined by the equilibrium: Cu(2HQ)2+chelate ? Cu(chelate)+2(2HQ) (1)
The ITC measurements were carried out at 25° C. and 50° C. using isothermal titration calorimetry (iTC200, Micro-Cal, GE). The instrument was electrically calibrated by means of a standard electric pulse as recommended by the manufacturer. A 40 μL syringe was used for the titration, mixing was effected by stirring the syringe at 1000 rpm during equilibration and experiments. Typically, 20 injections of 2 μL each were performed with a 150 s interval between injections in a single titration. The reference cell of the calorimeter filled with water acts as a thermal reference to the sample cell. […] All solutions were degassed before titrations to reduce noise.
The ligand exchange constant (K) and the ligand exchange enthalpy (ΔH) are determined by as fitting parameters using a binding isotherm based on reaction scheme (1).

[2] = ITC: ligand exchange of 2HQ with DOTA complexed to Cu(II) (Examples II); format: binding
[3] = ITC: extraction of Cu(II) from 2-hydroxyquinoline by DOTA (Examples I); format: binding; details: Milli-Q water pH 7.4, 25° C.
Experimental: Isothermal titration calorimetry (ITC) measurements are designed to obtain primarily the enthalpy of each complex formation and their stoichiometries. The heats of each reaction are determined by integration of the peaks observed. After the contribution from the heat of dilution of each injection is subtracted, the heat is plotted against the molar ratio of the measured components. The binding constant (Ka, interchangeably referred to as the ligand exchange constant, K), enthalpy of binding) (ΔH^0), and stoichiometry (n) of the formation of complex are determined by fitting the binding isotherm against the binding equation using an independent binding model.
The exchange of 2-hydroxyquinoline with DOTA are shown as heat spike plots (A) and integrated heat plots (B). Experimental conditions: 0.5 mM Cu(2-hydroxyquinoine)2 is titrated with 10-μL injections of 5 mM DOTA. All solutions were prepared in Milli-Q water at pH=7.4.

[4] = In vivo PET/CT biodistribution and blood concentration-time profile; parameters: species or system NMRI nude mice; details: i.v., mice, PET ROI on left ventricle
Experimental: Human colon adenocarcinoma (HT29) tumor cells (2×10^6 cells) were inoculated in the left and right flank of female NMRI (Naval Medical Research Institute) nude mice and allowed to grow 4 weeks in the mice to establish the malignant solid tumor. ^64Cu-liposomes for in vivo studies were prepared as described above and consisted of DSPC/CHOL/DSPE-PEG-2000 in the molar ratio 55:40:5 and contained the chelating agent (DOTA) in a concentration of 10 mM, and at a pH of 4.0 in the interior of the liposomes. […]
After i.v. administration of ^64Cu-liposome or ^64Cu-DOTA the animals were subject to micro-PET/CT imaging at different time points: 1, 4, 12 and 24 h. With PET imaging the amount of radioactivity specifically sequestered in a region of interest (ROI) on an image can be calculated allowing direct quantitative determinations based on differences in signal intensity. After PET- and CT images were reconstructed the images were fused with Inveon Software (Siemens), and PET data were analyzed by defining ROIs on selected tissues. PET values are expressed as mean Becquerel ml^−1 (Bq ml^−1), and ROIs were drawn manually over each organ of interest. […]
FIG. 11 is a time-activity curve (TAC) illustrating the blood concentration-time pro-file of ^64Cu-liposome and ^64Cu-DOTA. […] The total injected activity dose was measured by drawing one ROI around the animal 4 min post-injection. […]

Compound | Ligand exchange constant (K), exchange of Cu(II) from 2HQ to chelate ([1]; pH 5.9 at 25° C.) | ligand exchange enthalpy (ΔH) ([1]; pH 5.9 at 25° C.) | Ligand exchange constant (K), exchange of Cu(II) from 2HQ to chelate ([1]; pH 5.9 at 50° C.) | ligand exchange enthalpy (ΔH) ([1]; pH 5.9 at 50° C.) [kcal/mol] | exchange constant, K (Cu(2HQ)2 + DOTA) ([2]; acetate buffer at pH 4.0, 25° C.) | exchange constant, K (Cu(2HQ)2 + DOTA) ([2]; pH 5.9 in MES buffer, 25° C.) | binding affinity to Cu(II) compared with 2-hydroxyquinoline [3] | Ligand exchange constant (K), exchange of Cu(II) from 2HQ to chelate ([1]; pH 4.0 at 25° C.) | ligand exchange enthalpy (ΔH) ([1]; pH 4.0 at 25° C.) [kcal/mol] | Ligand exchange constant (K), exchange of Cu(II) from 2HQ to chelate ([1]; pH 4.0 at 50° C.) | ligand exchange enthalpy (ΔH) ([1]; pH 4.0 at 50° C.) [kcal/mol] | blood clearance [4]
C1CNCCNCCNCCN1 [Cyclen, 1,4,7,10-tetraazacyclododecane] | ^ | ^ | 1.4 × 10^−3 | -5.5 | – | – | – | – | – | – | – | –
O=C(O)CN1CCN(CC(=O)O)CCN(CC(=O)O)CCN(CC(=O)O)CC1 [DOTA, 1,4,7,10-tetraazacyclododecane-1,4,7,10-tetraacetic acid] | 6.1 × 10^−4 | -8.0 kcal/mol | 1.0 × 10^−3 | -6.3 | (1.0±0.3)·10^−2 | (5.2±1.6)·10^−4 | much higher binding affinity to Cu(II) than 2-hydroxyquinoline | 1.3 × 10^−2 | 3.8 | 8.7 × 10^−3 | 4.0 | –
O=P(O)(O)CN1CCN(CP(=O)(O)O)CCN(CP(=O)(O)O)CCN(CP(=O)(O)O)CC1 [DOTP, 1,4,7,10-tetraazacyclododecane-1,4,7,10-tetra(methanephosphonic acid)] | – | – | – | – | – | – | – | 2.5 × 10^−3 | 2.4 | 2.9 × 10^−3 | 3.4 | –
O=C(O)CN1CCCN(CC(=O)O)CCN(CC(=O)O)CCCN(CC(=O)O)CC1 [TETA, 1,4,8,11-tetraazacyclotetradecane-1,4,8,11-tetraacetic acid] | 3.0 × 10^−3 | -4.9 kcal/mol | 2.8 × 10^−2 | -4.7 | – | – | – | 1.2 × 10^−4 | 0.5 | – | – | –
O=C([O-])CN1CCN(CC(=O)[O-])CCN(CC(=O)O)CCN(CC(=O)O)CC1.[64Cu+2] [^64Cu-DOTA] | – | – | – | – | – | – | – | – | – | – | – | cleared rapidly after administration through renal filtration
